In one assay the test system is λ-DNA/EB adduct. Kind of assay: Quenching of fluorescence of λ-DNA/ethidium bromide adduct. The class given is binding, bacteriophage lambda. To be noted: λ-DNA pre-treated with EB, increments of complex, pH 8. The method, then: To determine whether compounds have the capacity to interact with DNA, 48,500 base-pairs of genomic DNA from bacteriophage lambda (λ-DNA, Promega. Madison USA) was used. A stock solution of 10 µM λ-DNA (base-pair concentration) was prepared in 10 mM Tris/HCl buffer containing 1 mM NaCl, pH 8.
The binding of compounds to λ-DNA was assayed by monitoring the quenching of fluorescence emitted by λ-DNA/ethidium bromide (EB) adduct (λexcit = 510, maximum emission at λem = 601). The λ-DNA solution was added to the EB solution, prepared in the same buffer, then increasing concentrations of compounds were added to EB-DNA [2, 48]. The fluorescence spectra were recorded in the range of 550–750 nm using a Thermo Fischer Scientific Varioskan Flash spectral scanning multimode reader (Vantaa, Finland). The spectra were recorded in suitable plates using 5 nm excitation and emission slits for all measurements.

In another assay the test system is P. aeruginosa 9027. Kind of assay: MBEC assay, micro-titer method (biofilm). The class given is cell-based, Pseudomonas aeruginosa.
Assay [1] concerns E. coli 25922. Kind of assay: MBEC assay, micro-titer method (biofilm). The class given is cell-based, Escherichia coli. The method, then:
(§1) The antibacterial assays were performed on Gram-negative (Escherichia coli ATCC 25922, E. coli 5, Pseudomonas aeruginosa ATCC 27853, P. aeruginosa ATCC 9027) and Gram-positive (Staphylococcus aureus ATCC 25923, S. aureus ATCC 6538, MRSA (Meticillin-resistant S. aureus) 388, ATCC, American Type Culture Collection) bacterial strains. Microbial suspensions (1.5 × 10^8 CFU/mL; colony forming units (CFU)) corresponding to 0.5 McFarland density obtained from 15 to 18-h bacterial cultures developed on solid media were used. The antimicrobial activity was tested on Mueller–Hinton agar medium.
(§2) The assessment of the complexes’ influence on the microbial ability to colonize an inert substratum with the establishment of the minimal biofilm eradication concentration (MBEC) was performed by the micro-titer method, following previously described protocols. The absorbance at 490 nm was measured with an Apollo LB 911ELISA (Berthold Technologies GmbH & Co. KG, Waltham, MA, USA) reader. All experiments were performed in triplicates.

In assay [2] the test system is E. coli 5 ESBL. Kind of assay: MBEC assay, micro-titer method (biofilm). Format: cell-based, Escherichia coli. The method, then: as §1, §2
The subject of assay [3] is E. coli 25922. Briefly: MIC assay, liquid medium microdilution (planktonic growth). The class given is cell-based, Escherichia coli. To be noted: E. coli 25922, 24 h at 37 °C. The method, then:
as §1
(§3) The quantitative assay of the antimicrobial activity was performed by the liquid medium microdilution method, in 96-well multi-well plates, to establish the minimal inhibitory concentration (MIC). For this purpose, serial two-fold dilutions of the compounds ranging between 1.000 and 1.95 μg/mL were performed in a 200 μL volume of broth and each well was seeded with 50 μL microbial inoculums. Sterility control (wells containing only culture medium) and culture controls (wells containing culture medium seeded with the microbial inoculum) were used. The influence of the DMSO solvent was also quantified in a series of wells containing DMSO, diluted accordingly with the dilution scheme used for the complexes. The plates were incubated for 24 h at 37 °C, and MIC values were considered as the lowest concentration of the tested compound that inhibited the visible growth of the microbial overnight cultures.
For orientation: Dilution methods test growth across graded concentrations, often in twofold steps.

Assay [4] relates to E. coli 5 ESBL. The assay is described as above. The conditions noted are these: E. coli 5 ESBL, 24 h at 37 °C. Format: cell-based, Escherichia coli. The method, then:
as §1, §3

A further assay concerns S. aureus 25923. Kind of assay: MBEC assay, micro-titer method (biofilm). The class given is cell-based, Staphylococcus aureus.

Each structure is given as a SMILES string.

What is called MIC is the least concentration at which growth counts as inhibited.

`Cc1cc(-c2ccccc2)nc2ncnn12.[Cu+2].[O-][Cl+3]([O-])([O-])[O-].[O-][Cl+3]([O-])([O-])[O-].c1ccc(-c2ccccn2)nc1.c1ccc(-c2ccccn2)nc1` [(1), [Cu(bpy)2(pmtp)](ClO4)2]: the “Fluorescence of λ-DNA/EB adduct on adding complex” value with λ-DNA/EB adduct is listed as “the fluorescence intensity decreased”. Besides, the MBEC value in the assay on P. aeruginosa 9027 is listed as 0.20 mM; in the assay on E. coli 25922 [1] it was 0.40 mM; with E. coli 5 ESBL [2] it was 0.40 mM. Besides, the MIC with E. coli 25922 [3] is 200 µM; against E. coli 5 ESBL [4], 400 µM.
For the molecule `Cc1cc(-c2ccccc2)nc2ncnn12.[Cu+2].[O-][Cl+3]([O-])([O-])[O-].[O-][Cl+3]([O-])([O-])[O-].c1cnc2c(c1)ccc1cccnc12.c1cnc2c(c1)ccc1cccnc12` [(2), [Cu(phen)2(pmtp)](ClO4)2], in the assay on λ-DNA/EB adduct, the “Fluorescence of λ-DNA/EB adduct on adding complex” value was “the fluorescence intensity decreased”. Also, the MBEC value in the assay with P. aeruginosa 9027 is reported as 0.01 mM; in the assay on S. aureus 25923 it was 0.01 mM; in the assay on E. coli 25922 [1], 0.02 mM; in the assay on E. coli 5 ESBL [2], 0.05 mM. The minimal inhibitory concentration (MIC) in the assay on E. coli 25922 [3] stood at 20 µM; in the assay on E. coli 5 ESBL [4] it was 50 µM.

Values taken from article PMC7504215, “Copper(II) Complexes with Mixed Heterocycle Ligands as Promising Antibacterial and Antitumor Species” (Molecules, 2020).
